Assay results as given in patent US20250297292A1, “ENZYMATIC REDUCTION OR REDUCTIVE AMINATION OF ARYL AND HETEROCYCLIC CARBOXYLIC ACIDS AND ALDEHYDES” (University of Delaware Newark, priority 2022, published 2025).

Legend:
cvTA = experiment: Endpoint bioconversion of PET-derived aldehydes to amines by cvTA; type: biochemical, Chromobacterium violaceum; conditions: 10 mM substrate, 1.5 μM cvTA, 40 mM iPr-NH2, 24 h at 30° C., N=3
Procedure: cvTA reactions for the conversion of 4FBA and TPAL to their corresponding amine (FIG. 8A) Endpoint bioconversion of 10 mM 4FBA to pAMBA (FIG. 8B) and 10 mM TPAL to pXYL (FIG. 8C) by 1.5 μM cvTA in 100 mM HEPES pH 7.5, 400 μM PLP with 40 mM iPr-NH2 as the amine donor. […] Sample size is N=3 and all data are shown as the mean±standard deviation.

[1] = test system: CAR from Segniliparus rotundus (srCAR); experiment: CAR initial rate by NADPH oxidation (srCAR on PET-derived carboxylates); type: biochemical; conditions: average activity of srCAR on TPA, triplicate average; used to normalize the heatmap
Text: Using a sequence similarity network, CARs were sampled across distinct protein clusters to probe for activity on TPA. Of 22 cloned CARs, 17 expressed, with 9 of those CARs being unreported in literature (FIG. 9A). Anti-His6 Western blot of cell lysate from E. coli BL21 (DE3) harboring different CARs is shown by phylogeny (FIG. 9B). CARS were expressed under optimized conditions. The Western blot is comprised of two separate blots, which are delineated by the dashed lines and contain their own protein ladders. The first lane of the Western blot is a control lane consisting of lysate from E. coli BL21 (DE3) with no CAR plasmid. A band corresponding to the putative CAR from Streptomyces noursei was not detected during Western blot analysis but was confirmed in a separate experiment. The substrate specificity of CAR was evaluated on TPA, 4FBA, MHET and mmTPA, which are carboxylates related to PET depolymerization (FIG. 9C). In addition, pAMBA was tested, as it is a potential reaction intermediate in our proposed multienzyme cascade for the formation of amines. Under mild aqueous conditions, the conversion of CAR was tracked on TPA, 4FBA, MHET, mmTPA, pAMBA and the model aromatic acid, benzoic acid (FIG. 9D). Here, the oxidation of NADPH is measured as a proxy to aldehyde formation, as depletion of NADPH is linked to the consumption of substrate. […]

srCAR = experiment: Time course of enzymatic reduction of PET-derived carboxylates by srCAR with co-factor regeneration; type: biochemical, Segniliparus rotundus; conditions: 5 mM substrate, 3-enzyme NADPH and ATP regeneration system, N=3
Procedure: Endpoint in vitro assays showing the conversion of 5 mM TPA to TPAL after 24 h, with and without co-factor regenerating enzymes. […] Time course analysis of the enzymatic reduction of (i) 5 mM TPA, (ii) 5 mM 4FBA, (iii) 5 mM mmTPA and (iv) 5 mM MHET by CAR (FIG. 10B) All experiments included a 3-enzyme NADPH and ATP regeneration system. […] Sample size is N=3 and all data are shown as the mean±standard deviation. Error bars for certain points of the bioconversion of mmTPA to mm4FBA are smaller than the height of the symbol.

[2] = target: lipase from Candida antarctica (CALB) (Moesziomyces antarcticus, UniProt P41365); experiment: De-esterification of PET-derived ester aldehydes by lipase CALB; type: biochemical; conditions: 1 mM substrate, 24 h, 30° C.
lipase from Candida antarctica (CALB), sequence (P41365 26-342): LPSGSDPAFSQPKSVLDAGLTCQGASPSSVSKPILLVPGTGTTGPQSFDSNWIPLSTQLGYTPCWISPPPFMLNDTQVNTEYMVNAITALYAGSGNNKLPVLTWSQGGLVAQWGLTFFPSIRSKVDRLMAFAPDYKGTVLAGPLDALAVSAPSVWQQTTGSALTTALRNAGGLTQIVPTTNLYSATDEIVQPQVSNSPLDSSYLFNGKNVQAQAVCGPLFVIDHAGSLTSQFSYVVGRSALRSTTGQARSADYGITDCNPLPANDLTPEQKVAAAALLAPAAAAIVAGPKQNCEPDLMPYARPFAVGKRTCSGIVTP

Compound | endpoint bioconversion of aldehyde to amine (cvTA) | over-reduction of aldehyde product to alcohol during reduction (srCAR) | de-esterification by CALB [2] | also measured
O=Cc1ccc(C=O)cc1 [TPAL, terephthalaldehyde] | proceeds to completion | – | – | –
O=C(O)c1ccc(C(=O)O)cc1 [TPA, terephthalic acid] | – | over-reduction of aldehydes to alcohols | – | average initial rate (oxidation of NADPH as proxy to aldehyde formation) [1]: 4.80 mM NADPHox·h^−1·μMCAR^−1
COC(=O)c1ccc(C(=O)O)cc1 [mmTPA, monomethyl terephthalate] | – | decline in concentration over time to the purported alcohol product | – | –
O=Cc1ccc(C(=O)OCCO)cc1 [MHE-4FBA, 2-hydroxyethyl 4-formylbenzoate] | – | – | completely de-esterified | –
O=Cc1ccc(C(=O)O)cc1 [4FBA, 4-formylbenzoic acid] | proceeds to completion | over-reduction of aldehydes to alcohols | – | –
COC(=O)c1ccc(C=O)cc1 [mm4FBA, methyl 4-formylbenzoate] | – | – | completely de-esterified | –
